{"source": "patent US20160185808A1", "about": "“PLATINUM DERIVATIVES FOR HYDROPHOBIC FORMULATIONS” (priority 2013, published 2016)", "key": {"[1]": {"system": "SKOV3 human ovary cancer cells", "experiment": "Therapeutic efficacy in vivo against SKOV3 tumors in Nu/Nu mice", "experimental": "The therapeutic efficacy of the Pt (II) complex against cancer was examined in vivo according to the following procedure, the results of which can be seen both in Table III and in graphical form in FIG. 4. To develop orthotropic tumors, 30 Nu/Nu female mice, each weighing approximately 20 g (Charles River Laboratories, Cambridge, Mass.), were injected intraperitoneally (ip) with 1×10^6 SKOV3 human ovary cancer cells (American Type Culture Collection (ATCC), Manassas, Va.) suspended in phosphate buffered saline. Animals were then dosed with nothing (control group) or test compounds. […] Cisplatin was administered to mice as a comparative sample and its effectiveness was also examined. The doses of Pt-MMA (21 mg/kg) and cis-Platin (5 mg/kg) were calculated so that animals received equivalent amounts of Pt. Dosing began 39 days after tumor injection in cells when the tumors had reached a volume of 150 mm^3-200 mm^3 measured with a ruler.\nControl or platinum compound treatment was administered on the 39th, 46th, 53th, 60th, and 66th day after initial tumor injections. The survival time of each group of mice was determined and the median survival time (days) was estimated on the basis of the observed survival time of each mouse. The therapeutic effectiveness of the Pt (II) complex is represented by the median survival significance compared to control (P-Value)."}, "[2]": {"experiment": "Storage stability of nanoemulsion formulations", "format": "physicochemical", "settings": "concentration up to 5 mg/ml, at both 4° C. and room temperature", "experimental": "The poor […] of these compounds is due to the presence of a di-fatty acid structure, which causes them to be too hydrophobic. […] Nanoemulsion formulations prepared with a concentration of up to 5 mg/ml of cisplatin mono-myristate, cisplatin mono-palmitate, and cisplatin mono-stearate were stable at both 4° C. and room temperature for approximately 3 months."}, "[3]": {"settings": "cisplatin 5 mg/kg, Pt-MMA 21 mg/kg"}}}
{"molecule": "N.N.[Cl][Pt][Cl]", "note": "[Cisplatin, Cis-dichlorodiammine Pt (II)]", "values": [{"measurement": "median survival compared to control group (in words)", "setting": "[1]", "value": "not significantly improved"}, {"measurement": "Average Tumor Size at 21 Days", "setting": "[1]; 21 days, cisplatin 5 mg/kg, Pt-MMA 21 mg/kg", "value": "640 ± 314", "unit": "mm^3"}, {"measurement": "Average Tumor Starting Size", "setting": "[1]; at start of dosing (day 39 after tumor injection)", "value": "171 ± 43", "unit": "mm^3"}, {"measurement": "Median Survival", "setting": "[1]; [3]", "value": 28, "unit": "days"}, {"measurement": "Time for First Tumor to Reach 1000 mm^3", "setting": "[1]; [3]", "value": 17, "unit": "days"}, {"measurement": "Median Survival Significance Compared to Control (P-Value)", "setting": "[1]; compared to control group", "value": 0.0606}]}
{"molecule": "CCCCCCCCCCCCCC(=O)[O][Pt]([NH2])([NH2])[Cl]", "note": "[Cisplatin-mono myristate, cis-Diamine Pt (II) Chloride Monomyristic Acid]", "values": [{"measurement": "Time nanoemulsion formulations were stable", "setting": "[2]", "value": "approximately 3 months"}]}
{"molecule": "cis-Diamine Pt (II) Chloride Monopalmitic Acid [Cisplatin-mono palmitate]", "values": [{"measurement": "Time nanoemulsion formulations were stable", "setting": "[2]", "value": "approximately 3 months"}]}
{"molecule": "cis-Diamine Pt (II) Chloride Monostearic Acid [Cisplatin-mono stearate]", "values": [{"measurement": "Time nanoemulsion formulations were stable", "setting": "[2]", "value": "approximately 3 months"}]}
